Literature values as cited in patent US9012464B2, “Salts and polymorphic forms of Afatinib” (Ratiopharm GmbH, priority 2010, dated 2015).

Conditions: acid compound used for forming afatinib salts

pKa1: 0.7
SMILES: O=S(=O)(O)c1ccccc1 [Benzenesulphonic acid]
